Measurements as given in US9133207B2, “Tetrandrine derivatives with substituted 5-carbon, preparation method and use thereof” (Hangzhou Bensheng Pharmaceutical Co., Ltd., priority 2011, dated 2015).
Converted amounts (≈) assume the structure as drawn.

Tests used:
MG63 (osteosarcoma) = experiment: Solid tumor cell growth inhibition, MTT, 72 h (Example 7); assay type: cell-based, human; conditions: Homo sapiens; 72 h, MTT, MG-63
How it was run: (§1)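 MTT read-out of viable cells after 72 h compound treatment, reported as percent viability versus untreated control (100%). Cells seeded at 4000 per well, grown 24 h beforehand in 10% FBS DMEM high glucose, 37 °C, 5% CO2.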

PC-3 (prostate cancer) = experiment: as above; assay type: cell-based, human; conditions: Homo sapiens; 72 h, MTT, PC-3
How it was run: as §1

[1] = system: PANC-1 (pancreatic cancer); experiment: as above; assay type: cell-based, human; conditions: Homo sapiens; 72 h, MTT, PANC-1
How it was run: as §1

[2] = system: CaES-17 (esophageal cancer cell); experiment: as above; assay type: cell-based, human; conditions: Homo sapiens, CaEs17; 72 h, MTT, CAES-17
How it was run: as §1

[3] = system: H9 (acute lymphoblastic leukemia, ALL); experiment: Leukemia cell growth inhibition, MTT, 72 h (Example 5); assay type: cell-based, human; conditions: Homo sapiens; 72 h, MTT
How it was run: (§2)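 Viability read by MTT after 72 h of compound treatment at 37 °C under 5% CO2; each well seeded with 6000 cells in 1640 medium plus 10% fetal bovine serum, compounds at several concentrations.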

[4] = system: NB4 (acute promyelocytic leukemia, AML); experiment: as above; assay type: cell-based, human; conditions: Homo sapiens; 72 h, MTT
How it was run: as §2

[5] = system: Kasumi-1 (acute myeloid leukemia M2 type, AML-M2); experiment: as above; assay type: cell-based, human; conditions: Homo sapiens, Kasumi 1
How it was run: as §2

[6] = system: K562/adr (drug-resistant, chronic myeloid leukemia, CML); experiment: as above; assay type: cell-based, human; conditions: Homo sapiens, K562/Adr; 72 h, MTT
How it was run: as §2

[7] = system: Jurkat (acute lymphoblastic leukemia, ALL); experiment: as above; assay type: cell-based, human; conditions: Homo sapiens, Jurkat; 72 h, MTT
How it was run: as §2

[8] = system: RKO (human colon adenocarcinoma cell); experiment: Solid tumor cell growth inhibition, MTT, 72 h (Example 7); assay type: cell-based; conditions: Homo sapiens; 72 h, MTT, RKO
How it was run: as §1

[9] = system: Huh7 (human liver cancer cell); experiment: as above; assay type: cell-based; conditions: Homo sapiens; 72 h, MTT, Huh-7
How it was run: as §1

[10] = system: Becap37 (human breast cancer cell); experiment: as above; assay type: cell-based; conditions: Homo sapiens; 72 h, MTT, Becap-37
How it was run: as §1

A549 (human lung cancer) = experiment: as above; assay type: cell-based; conditions: Homo sapiens; 72 h, MTT, A549
How it was run: as §1

[11] = system: MGC 803 (human gastric cancer cell); experiment: as above; assay type: cell-based; conditions: Homo sapiens
How it was run: as §1

[12] = system: RPMI8226 (multiple myeloma); experiment: Multiple myeloma cell growth inhibition, MTT, 72 h (Example 6); assay type: cell-based, human; conditions: Homo sapiens, RPMI-8226; 72 h, MTT, RPMI8226
How it was run: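 Viability was read by MTT after 72 h of compound exposure at 37 °C, 5% CO2. Each well held 6000 RPMI8226 cells in 1640 medium containing 10% fetal bovine serum, with derivatives added at various concentrations.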

IC50 (MG63 (osteosarcoma)) [µg/mL]	IC90 (MG63 (osteosarcoma)) [µg/mL]	IC50 (PC-3 (prostate cancer)) [µg/mL]	IC90 (PC-3 (prostate cancer)) [µg/mL]	IC50 [1] [µg/mL]	IC90 [1] [µg/mL]	IC50 [2] [µg/mL]	IC90 [2] [µg/mL]	IC50 [3] [µg/mL]	IC90 [3] [µg/mL]	IC50 [4] [µg/mL]	IC90 [4] [µg/mL]	IC50 [5] [µg/mL]	IC90 [5] [µg/mL]	IC50 [6] [µg/mL]	IC90 [6] [µg/mL]	IC50 [7] [µg/mL]	IC90 [7] [µg/mL]	IC50 [8] [µg/mL]	IC90 [8] [µg/mL]	Structure (SMILES)	further results
1.89 (≈ 2.72 µM)	4 (≈ 5.76 µM)	6.04 (≈ 8.7 µM)	8 (≈ 11.5 µM)	6.31 (≈ 9.09 µM)	13.2 (≈ 19 µM)	4.05 (≈ 5.84 µM)	25.6 (≈ 36.9 µM)	2.29 (≈ 3.3 µM)	3.99 (≈ 5.75 µM)	0.83 (≈ 1.2 µM)	4 (≈ 5.76 µM)	1.33 (≈ 1.92 µM)	5.63 (≈ 8.11 µM)	1.97 (≈ 2.84 µM)	12 (≈ 17.3 µM)	3.15 (≈ 4.54 µM)	9.19 (≈ 13.2 µM)	1.96 (≈ 2.82 µM)	4.25 (≈ 6.12 µM)	COc1ccc2cc1Oc1ccc(cc1)C[C@H]1c3cc(c(OC)cc3CCN1C)Oc1c(OC)c(OC)c(CNC(C)C)c3c1[C@H](C2)N(C)CC3 [BS-TE-311]	IC50 [9]: 3.5 µg/mL (≈ 5.04 µM); IC90 [9]: 4.9 µg/mL (≈ 7.06 µM); IC50 [10]: 2.5 µg/mL (≈ 3.6 µM); IC90 [10]: 7.86 µg/mL (≈ 11.3 µM); IC50 (A549 (human lung cancer)): 1.89 µg/mL (≈ 2.72 µM); IC90 (A549 (human lung cancer)): 9.07 µg/mL (≈ 13.1 µM); IC50 [11]: 3.17 µg/mL (≈ 4.57 µM); IC90 [11]: 11.8 µg/mL (≈ 17 µM); IC50 [12]: 0.18 µg/mL (≈ 0.259 µM); IC90 [12]: 1.74 µg/mL (≈ 2.51 µM)
1.15 (≈ 1.44 µM)	2.47 (≈ 3.1 µM)	2.72 (≈ 3.41 µM)	4.28 (≈ 5.37 µM)	2.84 (≈ 3.56 µM)	4.84 (≈ 6.07 µM)	2.09 (≈ 2.62 µM)	8.09 (≈ 10.2 µM)	1.62 (≈ 2.03 µM)	2.75 (≈ 3.45 µM)	1.18 (≈ 1.48 µM)	3.06 (≈ 3.84 µM)	2.24 (≈ 2.81 µM)	6.95 (≈ 8.72 µM)	0.68 (≈ 0.853 µM)	2.38 (≈ 2.99 µM)	1.9 (≈ 2.38 µM)	5.27 (≈ 6.61 µM)	2.25 (≈ 2.82 µM)	3.24 (≈ 4.07 µM)	COc1ccc2cc1Oc1ccc(cc1)C[C@H]1c3cc(c(OC)cc3CCN1C)Oc1c(OC)c(OC)c(CN3CCN(c4ccccc4)CC3)c3c1[C@H](C2)N(C)CC3 [BS-TE-343]	IC50 [9]: 2.14 µg/mL (≈ 2.69 µM); IC90 [9]: 4.85 µg/mL (≈ 6.09 µM); IC50 [10]: 6.96 µg/mL (≈ 8.73 µM); IC90 [10]: 8.17 µg/mL (≈ 10.3 µM); IC50 (A549 (human lung cancer)): 3.54 µg/mL (≈ 4.44 µM); IC90 (A549 (human lung cancer)): 12 µg/mL (≈ 15 µM); IC50 [11]: 1.1 µg/mL (≈ 1.38 µM); IC90 [11]: 2.88 µg/mL (≈ 3.61 µM); IC50 [12]: 0.05 µg/mL (≈ 0.0627 µM); IC90 [12]: 0.7 µg/mL (≈ 0.878 µM)
1.38 (≈ 1.88 µM)	4.84 (≈ 6.58 µM)	5.39 (≈ 7.32 µM)	8.99 (≈ 12.2 µM)	6.54 (≈ 8.89 µM)	14.7 (≈ 19.9 µM)	3.43 (≈ 4.66 µM)	27.4 (≈ 37.3 µM)	1.7 (≈ 2.31 µM)	4.68 (≈ 6.36 µM)	1.43 (≈ 1.94 µM)	6.61 (≈ 8.98 µM)	1.76 (≈ 2.39 µM)	8.69 (≈ 11.8 µM)	3.54 (≈ 4.81 µM)	12.4 (≈ 16.8 µM)	3.91 (≈ 5.31 µM)	12.7 (≈ 17.3 µM)	1.77 (≈ 2.41 µM)	4.03 (≈ 5.48 µM)	COc1ccc2cc1Oc1ccc(cc1)C[C@H]1c3cc(c(OC)cc3CCN1C)Oc1c(OC)c(OC)c(CN3CCC(O)CC3)c3c1[C@H](C2)N(C)CC3 [BS-TE-308]	IC50 [9]: 3.1 µg/mL (≈ 4.21 µM); IC90 [9]: 4.95 µg/mL (≈ 6.73 µM); IC50 [10]: 4.76 µg/mL (≈ 6.47 µM); IC90 [10]: 11.5 µg/mL (≈ 15.6 µM); IC50 (A549 (human lung cancer)): 2.79 µg/mL (≈ 3.79 µM); IC90 (A549 (human lung cancer)): 11.2 µg/mL (≈ 15.2 µM); IC50 [11]: 4.44 µg/mL (≈ 6.03 µM); IC90 [11]: 23 µg/mL (≈ 31.3 µM); IC50 [12]: 0.28 µg/mL (≈ 0.38 µM); IC90 [12]: 0.76 µg/mL (≈ 1.03 µM)
0.6 (≈ 0.829 µM)	1.19 (≈ 1.64 µM)	3.43 (≈ 4.74 µM)	4 (≈ 5.53 µM)	3.61 (≈ 4.99 µM)	5.72 (≈ 7.9 µM)	1.83 (≈ 2.53 µM)	7.21 (≈ 9.96 µM)	1.93 (≈ 2.67 µM)	3.23 (≈ 4.46 µM)	1.07 (≈ 1.48 µM)	2.87 (≈ 3.96 µM)	0.66 (≈ 0.912 µM)	1.8 (≈ 2.49 µM)	0.98 (≈ 1.35 µM)	2.39 (≈ 3.3 µM)	2.24 (≈ 3.09 µM)	4 (≈ 5.53 µM)	1.29 (≈ 1.78 µM)	2.45 (≈ 3.38 µM)	COCCCNCc1c2c3c(c(OC)c1OC)Oc1cc4c(cc1OC)CCN(C)[C@H]4Cc1ccc(cc1)Oc1cc(ccc1OC)C[C@@H]3N(C)CC2 [BS-TE-340]	IC50 [9]: 2.52 µg/mL (≈ 3.48 µM); IC90 [9]: 4.85 µg/mL (≈ 6.7 µM); IC50 [10]: 1.99 µg/mL (≈ 2.75 µM); IC90 [10]: 4.12 µg/mL (≈ 5.69 µM); IC50 (A549 (human lung cancer)): 2.36 µg/mL (≈ 3.26 µM); IC90 (A549 (human lung cancer)): 6.66 µg/mL (≈ 9.2 µM); IC50 [11]: 2.34 µg/mL (≈ 3.23 µM); IC90 [11]: 5.54 µg/mL (≈ 7.65 µM); IC50 [12]: 0.18 µg/mL (≈ 0.249 µM); IC90 [12]: 0.999 µg/mL (≈ 1.38 µM)
